Measured values from patent US7842324B2 (Senomyx, Inc., priority 2005, dated 2010).

Biological target: T1, hT1R2/hT1R3 sweet receptor expressed in HEK293 cell line (Homo sapiens, UniProt Q7RTX0+Q8TE23)
T1 construct: expressed in transfected cells; host or cells: HEK293 derivative stably expressing Gα15 and hT1R2/hT1R3, clone S-9
T1 sequence (Q8TE23 20-839): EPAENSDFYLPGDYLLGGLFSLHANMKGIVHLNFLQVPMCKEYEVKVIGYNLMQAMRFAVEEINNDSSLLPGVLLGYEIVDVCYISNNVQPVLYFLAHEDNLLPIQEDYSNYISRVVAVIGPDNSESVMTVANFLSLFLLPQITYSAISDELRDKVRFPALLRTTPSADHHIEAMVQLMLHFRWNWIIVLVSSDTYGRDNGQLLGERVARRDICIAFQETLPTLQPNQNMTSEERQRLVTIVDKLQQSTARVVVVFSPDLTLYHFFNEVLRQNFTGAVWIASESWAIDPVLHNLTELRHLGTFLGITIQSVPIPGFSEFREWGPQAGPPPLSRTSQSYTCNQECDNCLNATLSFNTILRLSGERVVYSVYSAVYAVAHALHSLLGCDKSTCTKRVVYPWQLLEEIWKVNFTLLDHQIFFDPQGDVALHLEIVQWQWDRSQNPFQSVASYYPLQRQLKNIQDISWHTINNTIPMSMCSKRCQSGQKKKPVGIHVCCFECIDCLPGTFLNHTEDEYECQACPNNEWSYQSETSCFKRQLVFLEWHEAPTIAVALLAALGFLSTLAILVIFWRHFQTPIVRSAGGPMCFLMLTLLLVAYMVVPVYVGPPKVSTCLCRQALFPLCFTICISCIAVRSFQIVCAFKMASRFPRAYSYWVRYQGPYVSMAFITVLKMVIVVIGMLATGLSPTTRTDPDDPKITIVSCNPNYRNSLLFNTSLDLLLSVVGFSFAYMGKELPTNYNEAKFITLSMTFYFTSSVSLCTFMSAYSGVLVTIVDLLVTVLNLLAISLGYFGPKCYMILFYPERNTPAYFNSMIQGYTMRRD
T1 sequence (Q7RTX0 21-852): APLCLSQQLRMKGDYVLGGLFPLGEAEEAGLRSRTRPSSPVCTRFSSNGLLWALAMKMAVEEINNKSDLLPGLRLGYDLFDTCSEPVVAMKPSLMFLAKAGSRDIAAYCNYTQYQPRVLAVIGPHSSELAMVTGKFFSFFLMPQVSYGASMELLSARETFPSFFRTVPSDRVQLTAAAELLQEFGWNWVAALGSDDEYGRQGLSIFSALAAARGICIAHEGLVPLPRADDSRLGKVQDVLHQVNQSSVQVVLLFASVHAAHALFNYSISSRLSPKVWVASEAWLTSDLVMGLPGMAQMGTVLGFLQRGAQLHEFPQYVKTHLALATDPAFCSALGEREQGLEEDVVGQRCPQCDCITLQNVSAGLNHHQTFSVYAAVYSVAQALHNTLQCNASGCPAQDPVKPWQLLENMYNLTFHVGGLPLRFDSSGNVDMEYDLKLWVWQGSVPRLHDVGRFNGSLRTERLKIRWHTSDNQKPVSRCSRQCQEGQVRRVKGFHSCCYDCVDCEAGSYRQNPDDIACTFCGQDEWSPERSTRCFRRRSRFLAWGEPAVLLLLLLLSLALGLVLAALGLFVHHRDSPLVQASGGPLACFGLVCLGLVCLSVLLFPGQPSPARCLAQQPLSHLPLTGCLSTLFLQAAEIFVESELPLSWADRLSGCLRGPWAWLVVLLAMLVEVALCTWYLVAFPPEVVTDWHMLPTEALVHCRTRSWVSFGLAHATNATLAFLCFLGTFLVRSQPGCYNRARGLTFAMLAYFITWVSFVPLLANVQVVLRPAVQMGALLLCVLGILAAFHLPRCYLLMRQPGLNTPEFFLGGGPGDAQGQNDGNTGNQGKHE
Test: In vitro hT1R2/hT1R3-HEK293 taste receptor activation assay (FLIPR)
Format: cell-based
Details: read-out: EC50 for activation of a hT1R2/hT1R3 sweet receptor expressed in HEK293 cell line
Outline: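 HEK293 cells stably expressing Gα15 and hT1R2/hT1R3 were loaded with Fluo-3AM (4 μM, 1 h, room temperature), then stimulated at room temperature in D-PBS. Peak fluorescence (ex 480/em 535 nm) was normalized to basal. Dose-responses were run in duplicate over 60 nM–30 μM, normalized to 400 mM D-fructose, and EC50 fitted by free-Hill non-linear regression.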

In the case of CC(C)CNC(=O)C(C)(C)c1ccc(-c2cncc(C#N)c2)cc1 [Compound 23, 2-(4-(5-cyanopyridin-3-yl)phenyl)-N-isobutyl-2-methylpropanamide], the EC50 is reported as 150 nM.
